# Laboratory results reported in patent EP4635966A1, “SYNTHETIC VARIANTS OF THE GANGLIOSIDE NGCGM3 AND USE THEREOF IN CANCER TREATMENT” (Centro de Inmunologia Molecular, priority 2022, dated 2024).
# How the values were obtained:
# [1] = test system: EL-4 thymoma cells; assay: Survival of EL-4 tumor-bearing mice; type: in vivo, C57BL/6 mice; conditions: 200 µg i.p. on days 1, 5 and 9; p=0.0005 vs placebo
# Procedure: Syngeneic C57BL/6 mice were inoculated intravenously through the tail vein with 2x10^5 EL-4 thymoma cells (ATCC TIB-39); mice were randomized and distributed into groups of 7-9 animals. Experimental groups received intraperitoneal treatments with 200 µg of ganglioside variants NGcGM3 d18:1-C24:1 and NGcGM3 from natural source or vehicle (5.6% sucrose solution, 0.75% L-histidine and 0.5% Tween20) on days 1, 5 and 9. The animals were monitored and sacrificed if they presented any sign or symptom that affected their ability to ingest food and water or compromised their general state of health, according to veterinary criteria.
# Syngeneic C57BL/6 mice were inoculated intravenously through the tail vein with 2x10^5 EL-4 thymoma cells; mice were randomized and distributed into groups of 7-9 animals. On the day following tumor inoculation, 6x10^5 bmDC previously cultured for 16 hours with vehicle (DMSO 0.1%), NGcGM3 d18:1-C24:1 ganglioside (10 µg/ml) or the ganglioside extracted from a natural source (10 µg/ml) were administered in a single dose, intravenously. Cells were washed extensively with serum-free RPMI-1640 medium to remove excess of lipids before transfer. Mice were monitored for signs or symptoms that affected their ability to ingest food and water or compromised their general health status, according to veterinary criteria.
# [2] = test system: iNKT cells; assay: In vivo iNKT cell activation: serum IFNγ by ELISA after i.p. injection; set-up: species or system C57BL/6 mice; conditions: 200 µg i.p.; blood 16 hours after administration; Figure 7
# Procedure: C57BL/6 mice were injected intraperitoneally with 200 µg of natural NGcGM3 ganglioside, NGcGM3 d18:1-C24:1, NGcGM3 d18:1-C 18:0 and 2 µg of αGalCer or vehicle (5.6 % sucrose, 0.75 % L-histidine and 0.5 % Tween-20) and blood was drawn 16 hours after the administration. Serum IFNγ levels were assessed by ELISA as an indirect measure of iNKT cell activation (Mouse IFNy ELISA Ready-SET-Go!, eBioscience).
# [3] = test system: FF13 mouse iNKT-cell hybridoma; assay: In vitro iNKT cell activation: bmDC co-cultured with FF13 hybridoma, IL-2 by ELISA; type: cell-based; conditions: for activation of iNKT cell hybridoma (IL-2 secretion): Example 6
# Procedure: The FF13 mouse iNKT-cell hybridoma previously described by Schumann J. (Schumann J. Eur J Immunol. 2007, 37:1431-41) was provided by Dr. Lucia Mori (University Hospital Basel, Switzerland) and was cultured in RPMI-1640 medium with GlutaMAX-I and 25 mM HEPES supplemented with 10 % heat-inactivated fetal bovine serum (FBS), 100 U/ml penicillin, 100 µg/ml streptomycin and 55 µM 2-mercaptoethanol.
# Mature bone marrow precursor-derived dendritic cells (bmDC) were used as APCs for in vitro iNKT cell activation assays and in vivo adoptive transfer experiments. The bmDCs were obtained according to the previously described protocol of differentiation from bone marrow progenitors in the presence of granulocyte/macrophage colony stimulating factor (GM-CSF) (Inaba K. J ExpMed.1992, 176:1693-1702) with some modifications. Briefly, bone marrow progenitors were isolated from femurs and tibias of C57BL/6 mice and cultured in complete RPMI-1640 medium (RPMI-1640 with GlutaMAX-I, 10% FBS, 100 U/mL penicillin, 100 µg/mL streptomycin and 55 µM 2-mercaptoethanol) supplemented with 20 ng/mL GM-CSF (R&D Systems). The culture was fed with fresh medium on day 3 and maturation of bmDCs was induced with 1 µg/ml LPS. On day 7, cells were harvested and used for iNKT cell activation assays or adoptive transfer.
# 5x10^4 bmDC were grown in RPMI-1640 medium with 10% FBS in the presence of αGalCer at a concentration of 100 ng/ml and concentrations of 0.1, 1 and 10 µg/ml of natural NGcGM3 and the synthetic variants NGcGM3 d18:1-C24:1, NGcGM3 d18:1-C24:0, NGcGM3 d18:1-C18:0, NGcGM3 d18:1-C18:1 and NGcGM3 d18:1-C18:2 or vehicle (0.1 % DMSO) for 16 -24 hours. Then, 10^5 FF13 hybridoma cells were added and co-cultured with the bmDCs for 24 hours. The culture supernatants were collected and evaluated for IL-2 content by ELISA. […] Differences were observed between the NGcGM3 variants in terms of their antigenicity to iNKT cells based on the length and structure of the fatty acid in the ceramide.
# 5x10^4 bmDC were cultured in RPMI-1640 medium with 10% FBS in the presence of 10 µg/ml and 1 µg/ml of NGcGM3 d18:1-C24:1 ganglioside, GM3 d18:1-C24:1 or vehicle (0.1% DMSO) for 16-24 hours. Next, 10^5 FF13 hybridoma cells were added and co-cultured with the bmDCs for 24 hours. The culture supernatants were collected and IL-2 content quantified by ELISA. From Figure 8, the synthetic ganglioside variants NGcGM3 and GM3, with identical ceramide structure, have differences in their ability to stimulate iNKT cells.
# 5x10^4 bmDC were cultured in RPMI-1640 medium with 10% FBS in the presence of 100 ng/ml, 1 µg/ml or 10 µg/ml concentrations of nanoparticles, αGalCer or vehicle (0.1% DMSO) for 16 -24 hours. […] The culture supernatants were collected and IL-2 content quantified by ELISA. […]
structure (smiles),measurement,setting,value
"CCCCCCCCC=CCCCCCCCCCCCCCC(=O)NC(COC1OC(CO)C(OC2OC(CO)C(O)C(OC3(C(=O)O)CC(O)C(NC(=O)CO)C(C(O)C(O)CO)O3)C2O)C(O)C1O)C(O)C=CCCCCCCCCCCCCC [NGcGM3 d18:1-C24:1, O-[3,5-didesoxy-5-hydroxyacetamido-D-glycero-α-D-galacto-2-nonupyranosyl-(2→3)-O-(β-D-galactopyranosyl)-(1→4)-β-D-glucopyranosyl-(1→1)-(2R,3S,4E)-2-tetracos-15-enamido-4-octadecene-1,3-diol]",survival of EL-4 tumor-bearing animals,[1],significantly increased the survival
same,serum IFNγ levels (in vivo activation of iNKT cells),[2],higher than in the rest of the experimental groups
same,activation of iNKT cell hybridoma (IL-2 secretion),"[3]; 100 ng/ml, same concentration as αGalCer",able to activate iNKT cells
same,activation of iNKT cell hybridoma (IL-2 secretion),"[3]; 0.1, 1 and 10 µg/ml on bmDC 16-24 h, co-culture 24 h, Figure 6",potent activation of FF13 hybridoma cells
same,activation of iNKT cell hybridoma (IL-2 secretion),"[3]; highest concentration tested, 10 µg/ml, αGalCer reference at 100 ng/ml",surpass the effect of αGalCer
same,iNKT cell activation (IL-2 secretion) compared with GM3 d18:1-C24:1,"[3]; Example 8, 10 µg/ml and 1 µg/ml, Figure 8",more potent effect on iNKT cell activation than the GM3 variant
